Test results published in BindingDB's records for patent WO2024074497 (Forx Therapeutics, 2024).

Target: T1, Poly(ADP-ribose) glycohydrolase [448-976,L473S,N479S,S802A,R811K,M841I,S858P,I916T,T924D,D927K,C963S,A967T] (UniProt Q86W56, A967T/C963S/D927K/I916T/L473S/M841I/N479S/R811K/S802A/S858P/T924D)
T1 construct: 448-976
Experiment: PARG enzymatic IC50 assay
Experimental: PARG enzyme as incubated with compound or vehicle (DMSO) for 15 minutes or 2 hours in a 384 well plate. After adding the PARG substrate ADP-ribose-pNP, the plate was read for absorbance intensity at 405 nm. The vehicle (DMSO) with high absorbance intensity represents no inhibition of enzymatic reaction while the low control (no enzyme) with low absorbance intensity represents full inhibition of enzymatic reaction.

T1 sequence (Q86W56 448-976 L473S/N479S/S802A/R811K/M841I/S858P/I916T/T924D/D927K/C963S/A967T): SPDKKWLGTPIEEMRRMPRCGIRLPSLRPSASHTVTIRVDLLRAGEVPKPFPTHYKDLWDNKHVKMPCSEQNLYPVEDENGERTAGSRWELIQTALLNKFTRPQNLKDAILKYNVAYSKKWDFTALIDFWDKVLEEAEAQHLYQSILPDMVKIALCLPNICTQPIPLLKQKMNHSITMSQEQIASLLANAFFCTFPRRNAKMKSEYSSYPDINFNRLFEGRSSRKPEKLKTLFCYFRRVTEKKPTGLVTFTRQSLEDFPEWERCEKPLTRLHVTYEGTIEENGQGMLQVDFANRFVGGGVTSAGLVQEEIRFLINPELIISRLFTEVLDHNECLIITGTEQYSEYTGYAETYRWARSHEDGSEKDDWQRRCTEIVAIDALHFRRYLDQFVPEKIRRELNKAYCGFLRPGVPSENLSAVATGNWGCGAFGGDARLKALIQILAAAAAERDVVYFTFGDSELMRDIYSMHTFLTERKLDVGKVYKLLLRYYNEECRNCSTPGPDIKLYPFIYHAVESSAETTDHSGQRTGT

`C[C@H]1CN(c2cc(S(=O)(=O)NC3(C)CC3)cn3c(-c4nnc(C(F)F)s4)ncc23)C[C@H](C)N1` [WO2024074497, Example 1] was tested, and the IC50 was 110 nM.
